Results on one molecule are retold here after patent publication US20220151953A1, “TREATMENT OF INFLAMMATORY SKIN CONDITIONS” (Echo Pharmaceuticals B.V., priority 2019, published 2022).

The test system of one test is IL-1β. Briefly: Inhibition of secretion of IL-1β by LPS-stimulated U937 cells (ELISA). In kind it is cell-based. As to the method:
(§1) The impact of cannabidiol, extract of Silybum marianum (fruit without pappus) and combinations of these components on the production of cytokines IL-1β and TNFα by a U937 cell line were investigated.
(§2) U937 cells, were thawed and treated according to the manufacturer's instructions. The cultures were incubated for recovery at 37° C. with 5% CO2 until 70-80% confluency was reached (visual estimation). Then, approx. 0.3×10^6¢/mL (determined by counting) were seeded in 96 well plates containing 200 μL/well of complete growth medium. The cells were incubated at 37° C. with 5% CO2 until 60% confluency was reached (visual estimation, typically—after 48 hr).
(§3) A proper blank control was subtracted from the measurements.
(§4) The cells were incubated for 24 hr. at 37° C. with 5% CO2. After the incubation, the conditioned medium of the different treatment groups was collected under standardized conditions and centrifuged at 250×g for 5 min to remove particulates. Clear supernatants were frozen at −70° C. until cytokines analyses. The secretion levels of IL-1β and TNFα (a major inflammatory marker) were quantified by commercial ELISA.

For a further test, the system named is TNFα. Description: Inhibition of secretion of TNFα by LPS-stimulated U937 cells (ELISA). In kind it is cell-based. As to the method: as §1, §2, §3, §4
The subject of a further test is prostaglandin E2 (PGE2). Briefly: Secretion of PGE2 by LPS-stimulated RAW 264.7 cells. In kind it is cell-based. To be noted: Mus musculus, RAW264.7, LPS 12.5 ng/ml, each component present at 2.5 μg/ml. As to the method:
The impact of cannabidiol, extract of Silybum marianum (fruit without pappus) and extract of Centella asiatica (leaf) on the secretion of prostaglandin E2 (PGE2) was investigated.
RAW 264.7 cells (approx. 2.5×10^5¢/ml, by counting) were seeded in 96 well plates containing 170 μl/well of complete growth medium. The cells were incubated at 37° C. with 5% CO2 for 24 hr. Then, the medium was aspirated and replaced by LPS-containing medium (12.5 ng/ml) without or with the test components. In addition, naïve cells, vehicle-treated cells, Stimulated Control, and Stimulated Vehicle Control served as negative controls. Dexamethasone served as a positive control for anti-inflammatory assay. A Blank control group was included in the assay.
The spent media from all test groups were collected under standardized conditions and centrifuged at 250 g for 5 min to remove particulates. Clear supernatants were frozen at −70° C. until analysis. The secretion levels of PGE2 (an important inflammatory marker) were determined.

A further test concerns human sebocytes. The conditions noted are these: cultured human sebocytes and human skin organ culture; cited from earlier work.
Setting [1] is: Homo sapiens, U-937, 1 μg/mL lipopolysaccharides, 24 hr, each component present at 10 μg/ml.
[2] abbreviates: LPS-stimulated, summary of Table 2.

For the molecule `C=C(C)[C@@H]1CCC(C)=C[C@H]1c1c(O)cc(CCCCC)cc1O` [Sample 1, Cannabidiol], the inhibition at 10 µg/mL in the test on IL-1β (setting [1]) worked out at 28.4%. The “effect on secretion of IL-1β (in words)” value in the test with IL-1β (setting [2]) was “attenuates secretion”. Moreover, the inhibition at 10 µg/mL in the test on TNFα (setting [1]) came out at 48%. Further, in the test on TNFα (setting [2]), the “effect on secretion of TNFα (in words)” value is given as “attenuates secretion”. In addition, the inhibition at 2.5 µg/mL in the test with prostaglandin E2 (PGE2) came to 24%. Moreover, in the test on human sebocytes, the “effect on lipogenic actions of arachidonic acid, linoleic acid and testosterone” value was “inhibited the lipogenic actions of various compounds”; the “effect on sebocyte proliferation” value was “suppressed sebocyte proliferation”.
